Where a SMILES comes first, the peptide text is derived from it. The star is where a group is joined. Cbz = O=C(OCc1ccccc1)*; CH2F = FC*
Tests used:
UCHL3 = molecular target: T1, UCHL3 (Homo sapiens, UniProt P15374); design: His (N); made in house; method as in PMID 22617491; details: concentrations up to 400 µM; cited from earlier work
T1 sequence (P15374 1-230): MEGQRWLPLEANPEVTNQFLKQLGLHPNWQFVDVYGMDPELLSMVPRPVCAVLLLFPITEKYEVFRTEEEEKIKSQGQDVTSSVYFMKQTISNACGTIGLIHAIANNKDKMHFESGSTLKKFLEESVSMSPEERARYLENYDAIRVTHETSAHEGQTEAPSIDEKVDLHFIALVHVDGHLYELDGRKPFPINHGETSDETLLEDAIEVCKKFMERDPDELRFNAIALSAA

UCHL5 = molecular target: T2, UCHL5 (Homo sapiens, UniProt Q9Y5K5); design: method as in PMID 22617491; details: concentrations up to 400 µM; cited from earlier work
T2 sequence (Q9Y5K5 1-245 limits assumed): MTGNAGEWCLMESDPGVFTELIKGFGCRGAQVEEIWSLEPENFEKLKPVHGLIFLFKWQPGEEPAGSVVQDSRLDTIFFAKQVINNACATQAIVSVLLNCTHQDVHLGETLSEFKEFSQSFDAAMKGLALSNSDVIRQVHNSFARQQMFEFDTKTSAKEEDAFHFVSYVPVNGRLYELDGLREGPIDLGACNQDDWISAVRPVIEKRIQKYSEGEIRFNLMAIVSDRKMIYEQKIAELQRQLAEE

UCHL1 = molecular target: T3, UCHL1 (Homo sapiens, UniProt P09936); test: Fluorescence-based Ub-Rho deubiquitinase activity assay; assay type: biochemical; design: made in house; details: IC50, after approximately 112 min preincubation
T3 sequence (P09936 1-223): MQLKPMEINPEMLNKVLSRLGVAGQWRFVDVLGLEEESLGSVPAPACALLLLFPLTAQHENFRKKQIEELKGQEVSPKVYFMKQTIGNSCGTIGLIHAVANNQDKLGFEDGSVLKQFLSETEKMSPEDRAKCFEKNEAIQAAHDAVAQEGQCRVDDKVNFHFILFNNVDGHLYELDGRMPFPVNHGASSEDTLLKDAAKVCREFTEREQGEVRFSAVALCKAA

In the case of `COC(=O)CC[C@H](NC(=O)[C@H](C)NC(=O)[C@@H](NC(=O)OCc1ccccc1)C(C)C)C(=O)CF` [Cpd 1, benzyloxycarbonyl-Val-Ala-Glu(γ-methoxy)-fluoromethylketone] (Cbz-Val-Ala-Glu(OMe)-CH2F), the “activity toward UCHL3” value (UCHL3) is listed as “not possess any activity”, the “activity toward UCHL5” value (UCHL5) is listed as “not possess any activity” and the IC50 (UCHL1) is listed as 29 µM.

From PMC7956625, “Optimization and Anti-Cancer Properties of Fluoromethylketones as Covalent Inhibitors for Ubiquitin C-Terminal Hydrolase L1” (Molecules, 2021)
